These results are taken from patent US20240254140A1, “COMPOUNDS AND THEIR USE IN THE TREATMENT OF BACTERIAL INFECTION” (Hoffmann-La Roche Inc., priority 2021, published 2024).

Converted amounts (≈) assume the structure as drawn.

In this assay the test system is Escherichia coli ATCC 25922. Description: Minimal Inhibitory Concentration (MIC) determination, broth microdilution. The class given is cell-based. To be noted: ATCC25922; strain Escherichia coli ATCC 25922; broth microdilution per CLSI M07-A10; 18-24 hours at 35±2° C.; lowest concentration for complete growth inhibition. The gist of the method:
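Broth microdilution followed CLSI M07-A10, with 2-fold compound dilutions and an inoculum from a 0.5 McFarland suspension diluted 1:200 in broth. Plates were incubated 18–24 h at 35±2° C in ambient air. MIC (μg/mL) was the lowest concentration giving no visible growth.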
For orientation: Dilution methods test growth across graded concentrations, often in twofold steps.
On to `CN(CC(=O)Nc1cc(F)c2c(c1)CC(CNCCC1CN(c3cnc4c(n3)NC(=O)CO4)C(=O)O1)C2)C1CC1` (stereo not shown) [Example 13], for which the minimal inhibitory concentration (MIC) (commonly the smallest concentration in the dilution series that meets the test's criterion for growth inhibition) stood at 1 µg/mL (≈ 1.81 µM). Regarding `CN1CCC[C@@H]1C(=O)Nc1cc(C#N)c2c(c1)CC(CNCCC1CN(c3cnc4c(n3)NC(=O)CO4)C(=O)O1)C2` (stereo partly drawn) [Example 62, (2R)—N-[7-Cyano-2-[[2-[2-oxo-3-(3-oxo-4H-pyrazino[2,3-b][1,4]oxazin-6-yl)oxazolidin-5-yl]ethylamino]methyl]indan-5-yl]-1-methyl-pyrrolidine-2-carboxamide], the MIC was ≤ 0.06 µg/mL. The compound `O=C1COc2ncc(N3CC4(CCN(CC5Cc6cc(NC(=O)[C@H]7C[C@@H](O)CN7)cc(F)c6C5)CC4)OC3=O)nc2N1` (stereo partly drawn) [Example 55, (2R,4R)—N-[7-Fluoro-2-[[2-oxo-3-(3-oxo-4H-pyrazino[2,3-b][1,4]oxazin-6-yl)-1-oxa-3,8-diazaspiro[4.5]decan-8-yl]methyl]indan-5-yl]-4-hydroxy-pyrrolidine-2-carboxamide] had a minimum inhibitory concentration (MIC) of 0.125 µg/mL (≈ 0.215 µM). `CO[C@H]1CN[C@H](C(=O)Nc2cc(F)c3c(c2)CC(CNCCC2CN(c4cnc5c(n4)NC(=O)CO5)C(=O)O2)C3)C1` (stereo partly drawn) [Example 44, (2S,4R)-N-[7-fluoro-2-[[2-[2-oxo-3-(3-oxo-4H-pyrazino[2,3-b][1,4]oxazin-6-yl)oxazolidin-5-yl]ethylamino]methyl]indan-5-yl]-4-methoxy-pyrrolidine-2-carboxamide] showed a minimum inhibitory concentration (MIC) of 1 µg/mL (≈ 1.76 µM). This MIC is about 8-fold higher than that of the compound before.

In the case of `CC(C(=O)Nc1cc(F)c2c(c1)CC(CNCC[C@@H]1CN(c3cnc4c(n3)NC(=O)CO4)C(=O)O1)C2)N1CCC1` (stereo partly shown) [Example 16], the MIC was 0.125 µg/mL (≈ 0.226 µM).

In turn, `O=C1COc2ncc(N3CC4(CCN(CC5Cc6cc(NC(=O)[C@@H]7C[C@@H](O)CN7)cc(F)c6C5)CC4)OC3=O)nc2N1` (stereo partly drawn) [Example 42, (2S,4R)—N-[7-fluoro-2-[[2-oxo-3-(3-oxo-4H-pyrazino[2,3-b][1,4]oxazin-6-yl)-1-oxa-3,8-diazaspiro[4.5]decan-8-yl]methyl]indan-5-yl]-4-hydroxy-pyrrolidine-2-carboxamide] displayed an MIC of 0.125 µg/mL (≈ 0.215 µM). On to `O=C(CN1CCC1)Nc1cc(F)c2c(c1)CC(CNCCC1CN(c3cnc4c(n3)NC(=O)CO4)C(=O)O1)C2` (stereo not shown) [Example 8, 2-(azetidin-1-yl)-N-[7-fluoro-2-[2-[2-oxo-3-(3-oxo-4H-pyrazino[2,3-b][1,4]oxazin-6-yl)oxazolidin-5-yl]ethylaminomethyl]indan-5-yl]acetamide], for which the MIC is 0.125 µg/mL (≈ 0.232 µM).

In turn, `C[C@H](C(=O)Nc1cc(F)c2c(c1)CC(CNCC[C@@H]1CN(c3cnc4c(n3)NC(=O)CO4)C(=O)O1)C2)N(C)C` (stereo partly drawn) [Example 70, (2R)-2-(Dimethylamino)-N-[7-fluoro-2-[[2-[(5R)-2-oxo-3-(3-oxo-4H-pyrazino[2,3-b][1,4]oxazin-6-yl)oxazolidin-5-yl]ethylamino]methyl]indan-5-yl]propanamide] yielded an MIC of 0.125 µg/mL (≈ 0.231 µM). Under `CN(CC(=O)Nc1cc(F)c2c(c1)CC(CNCCC1CN(c3cnc4c(n3)NC(=O)CO4)C(=O)O1)C2)C1COC1` (stereo not shown) [Example 11] stands 0.5 µg/mL (≈ 0.878 µM).

The compound `Cc1cc(NC(=O)[C@@H]2CCCN2C)nc2c1CC(CNCCC1CN(c3cnc4c(n3)NC(=O)CO4)C(=O)O1)C2` (stereo partly drawn) [Example 27, (2S)-1-methyl-N-[4-methyl-6-[[2-[2-oxo-3-(3-oxo-4H-pyrazino[2,3-b][1,4]oxazin-6-yl)oxazolidin-5-yl]ethylamino]methyl]-6,7-dihydro-5H-cyclopenta[b]pyridin-2-yl]pyrrolidine-2-carboxamide] registered an MIC of 1 µg/mL (≈ 1.82 µM). As to `CN(C)C(C)(C)C(=O)Nc1cc(F)c2c(c1)CC(CNCCC1CN(c3cnc4c(n3)NC(=O)CO4)C(=O)O1)C2` (stereo not shown) [Example 3], the MIC amounted to 0.25 µg/mL (≈ 0.45 µM). As for `N#Cc1cc(NC(=O)[C@@H]2C[C@@H](O)CN2)cc2c1CC(CNCCC1CN(c3cnc4c(n3)NC(=O)CO4)C(=O)O1)C2` (stereo partly drawn) [Example 61, (2S,4R)—N-[7-Cyano-2-[[2-[2-oxo-3-(3-oxo-4H-pyrazino[2,3-b][1,4]oxazin-6-yl)oxazolidin-5-yl]ethylamino]methyl]indan-5-yl]-4-hydroxy-pyrrolidine-2-carboxamide], the MIC was 0.5 µg/mL (≈ 0.889 µM). As to `Cc1cc(NC(=O)CN2CCC2)nc2c1CC(CNCCC1CN(c3cnc4c(n3)NC(=O)CO4)C(=O)O1)C2` (stereo not shown) [Example 26, 2-(azetidin-1-yl)-N-[4-methyl-6-[[2-[2-oxo-3-(3-oxo-4H-pyrazino[2,3-b][1,4]oxazin-6-yl)oxazolidin-5-yl]ethylamino]methyl]-6,7-dihydro-5H-cyclopenta[b]pyridin-2-yl]acetamide], the MIC amounted to 0.5 µg/mL (≈ 0.932 µM).
